Experimental data as given in PMC4077696 (PLoS Biology, 2014).
“Also recorded” adds a separate entry of the source. Where a name gives a salt, the structure may show the parent alone.

Key:
[1] = target: PMV in P. falciparum–infected erythrocytes (Plasmodium falciparum, UniProt Q8I6Z5); experiment: PEXEL processing of GFP reporters in parasites by immunoblot; assay type: cell-based; conditions: for PEXEL processing of KAHRP-GFP in parasites, in words / PEXEL processing of PfEMP3-GFP in parasites, in words: 5 h treatment, immunoblot; for PEXEL processing of KAHRP-GFP in parasites, in words: 20 and 50 µM; for PEXEL processing of PfEMP3-GFP in parasites, in words: up to 50 µM
PMV in P. falciparum–infected erythrocytes, sequence (Q8I6Z5 whole entry, the tested form may be a part): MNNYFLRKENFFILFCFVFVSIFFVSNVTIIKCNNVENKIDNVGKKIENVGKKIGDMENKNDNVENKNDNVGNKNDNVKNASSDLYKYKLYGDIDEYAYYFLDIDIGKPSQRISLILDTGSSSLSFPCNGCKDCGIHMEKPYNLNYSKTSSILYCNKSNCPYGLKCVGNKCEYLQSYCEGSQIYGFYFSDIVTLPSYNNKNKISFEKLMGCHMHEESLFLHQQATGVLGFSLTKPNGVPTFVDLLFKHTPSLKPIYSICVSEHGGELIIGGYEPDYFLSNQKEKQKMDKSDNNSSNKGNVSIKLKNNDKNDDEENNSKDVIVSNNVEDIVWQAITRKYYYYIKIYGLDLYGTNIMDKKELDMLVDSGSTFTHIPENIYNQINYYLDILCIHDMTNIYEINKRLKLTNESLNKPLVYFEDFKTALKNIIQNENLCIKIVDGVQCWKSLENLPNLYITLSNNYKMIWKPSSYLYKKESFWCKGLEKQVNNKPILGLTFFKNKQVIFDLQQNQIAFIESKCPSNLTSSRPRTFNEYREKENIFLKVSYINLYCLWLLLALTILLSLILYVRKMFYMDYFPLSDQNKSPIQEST
Description: To assess whether 916 could inhibit PMV in P. falciparum–infected erythrocytes, parasites expressing the PEXEL protein P. falciparum erythrocyte membrane protein 3 (PfEMP3) fused to green fluorescent protein (GFP) were treated with increasing concentrations of inhibitor, and PEXEL processing was evaluated by immunoblot. […] A GFP-only band, representing degraded chimera in the food vacuole, was also observed at ∼26 kDa (Figure 3A).
(§1) Trophozoites (30–34 h) expressing PfEMP3-GFP, KAHRP-GFP, or SERA5s-GFP were magnet-purified (Miltenyi Biotech), incubated with inhibitors in 400 µl total volume at 37°C for 1–5 h, treated with 0.09% saponin containing inhibitor, and washed pellets were solubilized in Laemmli's buffer, boiled for 3 min, and frozen at −20°C. Proteins were separated by SDS-PAGE, transferred to nitrocellulose and blocked in 10% skim milk/PBS-T, and probed with rat α-HA (Roche 3F10; 1∶1,000), mouse α-GFP (Roche; 1∶1,000), rabbit α-Aldolase (1∶1,000), rabbit α-HSP70 (1∶4,000), rabbit α-PfPMV (1∶1,000), or rabbit α-Hyp8 (1∶500) primary antibodies followed by horseradish peroxidase-conjugated secondary antibodies (Silenius) and detected by enhanced chemiluminescence (Amersham).

[2] = test system: P. falciparum protein translation; experiment: Global protein synthesis by radiolabeling parasite proteins after drug treatment; assay type: cell-based, Plasmodium falciparum; conditions: for Global protein synthesis after 23 h treatment of rings: 15 µM or 50>15 µM, BFA 5 µg/ml; for Global protein synthesis after 5 h treatment of trophozoites: 15 or 50 µM, BFA 10 µg/ml, 15 min labeling
Description: To gain further insight into the effects of 916, 024, and 025 on parasites, we assessed global protein synthesis following drug treatment by radiolabeling parasite proteins. Treatment of trophozoites with inhibitor for 5 h prior to radiolabeling had no detectable effect on translation, even at 50 µM concentrations (Figure S4A), indicating the compounds are not direct inhibitors of the translation machinery. We next assessed protein synthesis following 23 h of drug treatment of ring stage parasites (aged 1–3 h old at the initiation of treatment). […] Indeed, Giemsa smears following treatment identified a small proportion of pyknotic parasites in the population (results not shown). […] It is possible that PMV inhibition by 916 treatment has a similar but weaker effect to BFA, in that it causes the accumulation of uncleaved PEXEL precursors in the ER, perturbing ER transport, and that this negatively affects translation by an ER stress response. An alternative possibility is that translation was decreased slightly as a result of parasites dying from 916-mediated impairment of erythrocyte remodeling. Either way, the profile for 916 was different to that seen for 024 and 025, even at 50 µM, indicating the latter analogs likely kill parasites via a different mechanism to 916.
Whole parasite proteins were radiolabeled by culturing magnet-purified trophozoites (wild-type 3D7 or expressing PfEMP3-GFP) in Met/Cys-free medium for 30 min at 37°C before addition of 800 µCi/ml ^35S-Met/Cys (Perkin/Elmer) to the medium for the indicated times. Pellets were snap frozen in ethanol/dry ice bath and stored at −80°C. For radiolabeling in the presence of PMV inhibitor, parasites were treated with 20 µM WEHI-916 for 5 h before labeling commenced. For pulse-chases, proteins were radiolabeled in the presence or absence of inhibitor, as above, before further culture in radiolabel-free, inhibitor-free complete medium for the indicated times at 37°C before snap freezing. Frozen samples were either solubilized in Laemmli's buffer (Figure S4) or solubilized in 1% Triton X-100/PBS with protease inhibitor cocktail (Roche) and PfEMP3-GFP species immunopurified with α-GFP agarose (MBL) at 4°C for 2 h (Figures 3 and S3), and proteins were resolved by SDS-PAGE, visualized by autoradiography (7-d exposures), and quantified using a GS-800 Calibrated Densitometer (Bio-Rad).

beta-secretase (BACE-1) = beta-secretase (BACE-1) (Homo sapiens, UniProt P56817); experiment: Off-target activity against human aspartyl protease BACE-1; assay type: biochemical
beta-secretase (BACE-1), sequence (P56817 46-501): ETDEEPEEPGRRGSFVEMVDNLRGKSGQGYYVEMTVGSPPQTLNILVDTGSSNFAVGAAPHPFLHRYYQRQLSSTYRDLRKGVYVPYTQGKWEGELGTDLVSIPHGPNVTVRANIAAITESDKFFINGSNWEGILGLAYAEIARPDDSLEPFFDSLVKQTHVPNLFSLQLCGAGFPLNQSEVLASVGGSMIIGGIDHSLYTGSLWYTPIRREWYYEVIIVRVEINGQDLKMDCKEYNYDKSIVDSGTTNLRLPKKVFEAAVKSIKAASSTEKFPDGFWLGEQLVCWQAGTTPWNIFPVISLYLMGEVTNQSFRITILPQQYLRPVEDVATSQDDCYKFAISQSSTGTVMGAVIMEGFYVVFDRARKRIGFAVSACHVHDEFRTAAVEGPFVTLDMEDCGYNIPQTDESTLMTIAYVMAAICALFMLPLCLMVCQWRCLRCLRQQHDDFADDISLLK

Cathepsin D = Cathepsin D (Homo sapiens, UniProt P07339); experiment: Off-target activity against human aspartyl protease Cathepsin D; assay type: biochemical; conditions: read-out: IC50 CathD
Cathepsin D, sequence (P07339 65-412): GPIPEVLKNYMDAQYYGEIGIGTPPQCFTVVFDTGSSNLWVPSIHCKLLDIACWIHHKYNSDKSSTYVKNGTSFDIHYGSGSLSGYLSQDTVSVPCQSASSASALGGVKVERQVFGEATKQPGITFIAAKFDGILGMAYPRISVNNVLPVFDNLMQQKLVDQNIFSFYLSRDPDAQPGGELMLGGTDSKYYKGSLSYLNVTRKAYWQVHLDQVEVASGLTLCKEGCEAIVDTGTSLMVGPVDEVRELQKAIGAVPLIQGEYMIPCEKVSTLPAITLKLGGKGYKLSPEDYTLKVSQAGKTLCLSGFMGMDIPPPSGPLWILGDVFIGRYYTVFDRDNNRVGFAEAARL

[3] = test system: P. falciparum NF54 expressing PMVHA-glmS; experiment: Dose-response growth assay of parasites expressing PMVHA-glmS or PMVHA-M9 with or without GlcN; assay type: cell-based, Plasmodium falciparum
Description: Parasites expressing PMVHA-glmS were next assessed for toxicity to 916.
(§2) In the case of dose-response curves, medium was kept for the entire experiment; in the case of curves in Figure 4B,C, medium was replaced with inhibitor-free medium at 48 h postinfection. Parasitaemia was always determined at 72 h by flow cytometry. To knock down PMV, GlcN (Sigma) was added to trophozoites and drug curves initiated by adding compound at subsequent rings (24 h) for 24–72 h.

[4] = target: T1, PMV in P. falciparum expressing PMVHA-glmS (Plasmodium falciparum, UniProt Q8I6Z5); experiment: PEXEL processing of PfEMP3-GFP in PMVHA-glmS parasites with PMV knockdown, immunoblot; assay type: cell-based; conditions: 20 µM 916, 5 h
T1 construct: incorporated in frame at the 3′ of the PMV locus by homologous recombination; expressed in transfected cells; host or cells: P. falciparum NF54 with pPMVHA-glmS integrated at the PMV locus, also transfected with PfEMP3-GFP
T1 sequence (Q8I6Z5 whole entry): as the sequence (Q8I6Z5 whole entry, the tested form may be a part) above
Description: As 916 inhibited PMV in parasites (for example, by 13-fold, Figure 3G), the additive effect of PMV knockdown plus 916 treatment was investigated. Parasites expressing PMVHA-glmS were transfected with a construct encoding PfEMP3-GFP, and PEXEL processing was assessed by immunoblot.
as §1

[5] = test system: P. falciparum overexpressing PvPMVHA; experiment: Dose-response growth assay of parasites overexpressing PvPMVHA; assay type: cell-based, Plasmodium falciparum
Description: We next investigated the possible effects of PMV overexpression on parasite sensitivity to 916. […] To control for the carriage of episomes and selection on WR99210, sensitivity to 916 was compared between parasites overexpressing a similar construct on episomes on WR99210 selection (encoding miniVarHA; see Figure 1F).
as §2

Row | SMILES | PEXEL processing of KAHRP-GFP in parasites, in words [1] | PEXEL processing of PfEMP3-GFP in parasites, in words [1] | Global protein synthesis after 23 h treatment of rings [2] | Global protein synthesis after 5 h treatment of trophozoites [2] | IC50 (beta-secretase (BACE-1)) [µM] | IC50 (Cathepsin D) [µM] | Inhibition of PfEMP3-GFP cleavage after 2 to 5 h of treatment ([1]; 2 to 5 h) | Inhibition of PfEMP3-GFP cleavage after 1 h of treatment ([1]; 1 h) | inhibition at 20 µM ([1]; read-out: Rescue of PfEMP3-GFP cleavage inhibition in inhibitor-free medium) [%] | Decrease in EC50 in presence of GlcN, PMVHA-M9 control ([3]; PMVHA-M9 (inactive glmS), with versus without GlcN) [fold] | Decrease in EC50 following PMV knockdown ([3]; PMVHA-glmS, 6 mM GlcN versus no GlcN, 72 h) [fold] | Enhancement of PEXEL cleavage impairment following PMV knockdown [4] [%] | Increase in EC50 with PvPMVHA overexpression versus miniVarHA control ([5]; 5 nM WR99210 selection) [fold] | Increase in EC50 with PvPMVHA overexpression versus wild-type 3D7 ([5]; wild-type 3D7 without WR99210 selection) [fold]
1 | CC[C@H](C)[C@H](NC(=O)[C@@H](NC(=O)[C@H](CCCNC(=N)N)NS(=O)(=O)Cc1ccccc1)C(C)C)[C@@H](O)CC(=O)NCCc1ccccc1 [compound 025, PhCH2SO2Arg-Val-AHMHpA-NH(CH2)2Ph . TFA] | no effect | no effect | no defect in global protein synthesis | no defect in global protein synthesis | – | – | – | – | – | – | – | – | – | –
2 | CC(C)C[C@H](NC(=O)[C@@H](NC(=O)[C@H](CCCNC(=N)N)NS(=O)(=O)Cc1ccccc1)C(C)C)[C@@H](O)CC(=O)NCCc1ccccc1 [compound 916, PhCH2SO2-Arg(NH2)-Val-Sta-NH(CH2)2Ph .TFA] | accumulation of both uncleaved (black arrow) and signal peptide-cleaved (red arrow) protein | dose-dependent increase in unprocessed PfEMP3-GFP | minor reduction in translation; also recorded: slight reduction in translation | no defect in global protein synthesis | > 100 | 25 | uncleaved PfEMP3-GFP increased | No effect | ~50 | 1.4 | 3.3 | 50 | 1.9 | 1.4
